Experimental data as given in the NIST ThermoML archive (doi:10.1016/j.tca.2018.05.020).
Numbers after ± are expanded uncertainties.

Key:
[1] = DSC
[2] = Molar enthalpy of transition or fusion; conditions: Crystal; DSC

Triple point temperature ([1]; Crystal): 469.15 ± 1 K | Glass transition temperature ([1]; Glass): 85.00 ± 1 °C | Molar enthalpy of transition or fusion [2]: 8.61 ± 0.222 kcal/mol
Structure (SMILES): CNC(=O)c1ccc(N2C(=S)N(c3ccc(C#N)c(C(F)(F)F)c3)C(=O)C2(C)C)cc1F [Enzalutamide]
